From US11691984B2, “Compounds and methods for DCAF-mediated protein degradation” (The Scripps Research Institute, priority 2018, dated 2023)
Each block holds one compound with its values, some of them ahead of it. Residues, ends and D or L forms follow the SMILES beside them. *: point of attachment. Cbz = O=C(OCc1ccccc1)*

What was measured:
[1] = biological target: T1, HA-DCAF16 and FLAG-FKBP12_NLS (Homo sapiens, UniProt P62942+Q9NXF7); assay: Co-immunoprecipitation of HA-DCAF16 with FLAG-FKBP12_NLS (ternary complex) in HEK293T cells; assay type: cell-based; conditions: 5 μM, MG132 10 μM, 2 hours
T1 construct: expressed in transfected cells; host or cells: HEK293T stably expressing FLAG-FKBP12_NLS, transiently transfected with HA-DCAF16 (pRK5)
Description: (§1) Cells were collected and lysed in 1% NP-40 lysis buffer (25 mM Tris-HCl pH 7.4, 150 mM NaCl, 10% glycerol, 1% Nonidet P-40) with complete protease inhibitor cocktail (Roche). Cells were vortexed and sonicated for 5 pulses (40%, 4). The supernatant was collected after centrifugation at 16,000 g for 10 min at 4° C. Protein concentration was determined by DC assay (Bio-Rad). Protein lysate was heated at 95° C. for 5 min in 1× Laemmli sample buffer. Proteins were resolved by 12% or 14% Novex Tris-Glycine Mini Gels (Invitrogen) and transferred to polyvinylidene fluoride (PVDF) membrane (0.2 Bio-Rad). The membrane was blocked with 5% BSA in TBST buffer (0.1% Tween 20, 20 mM Tris-HCl 7.6, 150 mM NaCl) at room temperature for 1 h. The antibody was diluted with fresh 5% BSA in TBST buffer (1:10000 dilution for FLAG, HA and β-Actin, 1:1000 dilution for others) and incubated with membrane (1 h room temperature for FLAG, HA and β-Actin, overnight 4° C. for others). Membrane was washed three times with TBST buffer and incubated with secondary antibody (1:5000 dilution in 5% BSA in TBST) at room temperature for 1 h. Membrane was washed three times with TBST buffer. The chemiluminescence signal in membrane was recorded after developing in ECL or ECL plus western blotting detection reagent using CL-XPosure film (Thermo Scientific). Relative band intensities were quantified using ImageJ.
Cells were collected and lysed in 1% NP-40 lysis buffer with complete protease inhibitor cocktail on ice for 10 min, followed by 5 pulses of sonication (40%, 4). After centrifugation at 16,000 g for 10 min at 4° C., the supernatant was collected. FLAG affinity gel (20 μL slurry per sample) was incubated with protein lysates at 4° C. for 1 h and washed four times with IP washing buffer. The affinity gel was heated at 95° C. for 10 min in 2× Laemmli sample buffer, followed by western blot analysis.

[2] = biological target: T2, FLAG-FKBP12_NLS (Homo sapiens, UniProt P62942); assay: Anti-FLAG western blot of stably expressed nuclear FKBP12 (FLAG-FKBP12_NLS) in HEK293T cells; assay type: cell-based; design: expressed in transfected cells; host or cells: HEK293T, MDA-MB-231 and HEK293 DCAF16+/+ and DCAF16-/- clones (lentiviral pCDH-CMV-MCS-EF1-Puro); conditions: for nuclear FKBP12 (FKBP12_NLS) protein level: 2 μM, 8 or 24 h; for effect of inhibitor on KB02-SLF-mediated loss of FKBP12_NLS: KB02-SLF 1 μM with MG132 10 μM or MLN4924 1 μM
Excerpt: (§2) FLAG-tagged variants of FKBP12 (FLAG-FKBP12) or (2) FKBP12 with a C-terminal nuclear localization sequence (FLAG-FKBP12_NLS) were then stably expressed in HEK293T cells to provide cell models for evaluating cytosolic- and nuclear-localized E3-mediated degradation pathways, respectively.
(§3) FLAG-FKBP12 or FLAG-FKBP12_NLS lentivirus was generated by co-transfection of FLAG-FKBP12 or FLAG-FKBP12_NLS, pCMV-dR8.2 and pMD2.G into HEK 293T cells using FuGene 6 transfection reagent (Promega). Virus-containing medium were collected 48 h after transfection, filtered with […] filter, and used to transduce HEK293T and MDA-MB-231 cells in the presence of 10 μg/mL polybrene (Santa Cruz). 72 h after transduction, puromycin (2 μg/mL) was added to cells. HEK293T cells stably expressing FLAG-FKBP12 or FLAG-FKBP12_NLS were obtained after puromycin selection for 7 days. HEK293T cells stably expressing pCDH empty vector were generated in parallel as control.
shRNA lentivirus was generated by co-transfection of shRNA-containing vector, pCMV-dR8.2 and pMD2.G into HEK 293T cells using FuGene 6 transfection reagent (Promega). Virus-containing medium were collected 48 h after transfection and used to transiently transduce HEK293T cells stably expressing FLAG-FKBP12_NLS for 48 h. Lentiviral shRNAs targeting human DCAF16 or DTL were in pLKO.1 vector and purchased from Sigma. The sequences of shRNAs is described below.
as §1

[3] = biological target: T3, BRD4 (Homo sapiens, UniProt O60885); assay: Western blot of endogenous BRD4 in HEK293T cells; assay type: cell-based; conditions: 20 μM KB02-JQ1; 10 μM MG132 or 1 μM MLN4924
T3 construct: degradation of endogenous BRD4 in HEK293T cells; endogenous in cells; host or cells: HEK293T (A10, A16); HEK293 DCAF16+/+ and DCAF16-/- clones (A11)
Description: as §1

[4] = biological target: T2, FLAG-FKBP12_NLS; assay: Western blot of stably expressed FLAG-FKBP12_NLS in MDA-MB-231 cells; assay type: cell-based; design: expressed in transfected cells; host or cells: HEK293T, MDA-MB-231 and HEK293 DCAF16+/+ and DCAF16-/- clones (lentiviral pCDH-CMV-MCS-EF1-Puro); conditions: 8 hours; for effect of inhibitor on degradation of FLAG-FKBP12_NLS in MDA-MB-231 cells: KB02-PEG0-SLF, KB02-SLF or KB02-PEG4-SLF 1 μM
Description: as §3, §1

[5] = tested on: HEK293T cells; assay: Cell viability assay (Cell Titer Glo); assay type: cell-based, human; conditions: 24 hours, read-out: cytotoxicity IC50
Description: HEK293T cells were seeded in 96-well clear bottom white plate (Corning) at 3×10^4 cells per well in 100 μL of DMEM medium and grown for 24 h. The cells were treated with 0.625, 1.25, 2.5, 5, 10, 20 and 40 μM of KB02-SLF or KB02-JQ1 (DMSO stock, final DMEM concentration is 0.1% (v/v)) in 100 μL of DMEM medium for 24 h. 50 μL of Cell Titer Glo reagent (Promega) was added to each well and incubate for 10 min at room temperature. The luminescence was read on CLARIOstar (BMG LAB TECH).

[6] = biological target: T4, FLAG-FKBP12 (Homo sapiens, UniProt P62942); assay: Anti-FLAG western blot of stably expressed cytosolic FKBP12 (FLAG-FKBP12) in HEK293T cells; assay type: cell-based; conditions: lenalidomide-SLF positive control, 4 or 24 h
T4 construct: expressed in transfected cells; host or cells: HEK293T (lentiviral transduction, puromycin selection)
Excerpt: as §2
as §3, with “HEK293T cells stably expressing pCDH empty vector were generated in parallel as control.” left out
Cells were collected and lysed in 1% NP-40 lysis buffer (25 mM Tris-HCl pH 7.4, 150 mM NaCl, 10% glycerol, 1% Nonidet P-40) with complete protease inhibitor cocktail (Roche). […] Protein concentration was determined by DC assay (Bio-Rad). […] The chemiluminescence signal in membrane was recorded after developing in ECL or ECL plus western blotting detection reagent using CL-XPosure film (Thermo Scientific). Relative band intensities were quantified using ImageJ.

T1 sequence (Q9NXF7 whole entry): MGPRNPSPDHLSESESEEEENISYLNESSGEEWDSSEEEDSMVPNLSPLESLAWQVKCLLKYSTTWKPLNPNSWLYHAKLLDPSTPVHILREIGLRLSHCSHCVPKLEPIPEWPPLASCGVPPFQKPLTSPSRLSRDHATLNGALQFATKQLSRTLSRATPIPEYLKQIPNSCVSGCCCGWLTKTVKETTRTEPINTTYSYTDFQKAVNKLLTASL
T1 sequence (P62942 2-108): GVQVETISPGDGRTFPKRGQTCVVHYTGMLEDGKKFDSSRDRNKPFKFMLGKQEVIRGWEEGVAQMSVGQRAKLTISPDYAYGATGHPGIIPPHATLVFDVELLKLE
T1 sequence (Q16531 whole entry partner): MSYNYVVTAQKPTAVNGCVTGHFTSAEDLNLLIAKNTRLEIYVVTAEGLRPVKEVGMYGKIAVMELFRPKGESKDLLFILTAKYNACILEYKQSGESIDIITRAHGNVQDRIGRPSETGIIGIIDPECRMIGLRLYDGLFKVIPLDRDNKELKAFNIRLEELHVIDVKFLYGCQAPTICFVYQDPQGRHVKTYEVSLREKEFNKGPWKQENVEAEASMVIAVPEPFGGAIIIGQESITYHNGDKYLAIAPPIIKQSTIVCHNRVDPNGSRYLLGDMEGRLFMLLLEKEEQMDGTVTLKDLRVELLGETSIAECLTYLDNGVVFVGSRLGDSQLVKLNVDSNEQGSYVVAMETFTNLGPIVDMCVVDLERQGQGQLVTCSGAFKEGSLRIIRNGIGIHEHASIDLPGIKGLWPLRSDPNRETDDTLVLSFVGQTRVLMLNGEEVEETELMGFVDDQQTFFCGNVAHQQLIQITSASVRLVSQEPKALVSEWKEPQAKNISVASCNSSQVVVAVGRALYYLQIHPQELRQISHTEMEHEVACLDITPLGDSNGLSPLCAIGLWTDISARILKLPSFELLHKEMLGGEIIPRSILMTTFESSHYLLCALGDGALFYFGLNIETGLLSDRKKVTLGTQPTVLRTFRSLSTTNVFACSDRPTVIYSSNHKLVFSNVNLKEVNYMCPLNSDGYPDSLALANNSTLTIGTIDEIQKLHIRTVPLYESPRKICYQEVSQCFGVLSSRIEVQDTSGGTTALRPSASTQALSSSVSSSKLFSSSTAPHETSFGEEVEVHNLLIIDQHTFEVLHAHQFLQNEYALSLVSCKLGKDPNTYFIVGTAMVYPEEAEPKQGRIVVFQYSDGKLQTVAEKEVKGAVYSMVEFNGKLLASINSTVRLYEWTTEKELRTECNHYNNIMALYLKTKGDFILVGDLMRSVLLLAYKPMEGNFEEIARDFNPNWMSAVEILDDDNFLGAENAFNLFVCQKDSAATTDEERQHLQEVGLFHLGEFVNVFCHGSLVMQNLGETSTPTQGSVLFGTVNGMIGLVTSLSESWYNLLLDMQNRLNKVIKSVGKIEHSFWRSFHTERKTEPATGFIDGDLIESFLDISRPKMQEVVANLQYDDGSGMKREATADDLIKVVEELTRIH
T2 sequence (P62942 whole entry): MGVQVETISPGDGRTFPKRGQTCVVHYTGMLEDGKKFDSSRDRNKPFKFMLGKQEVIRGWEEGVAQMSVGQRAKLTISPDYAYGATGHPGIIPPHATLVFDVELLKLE
T4 sequence (P62942 whole entry): as above

co-immunoprecipitation of HA-DCAF16 with FLAG-FKBP12_NLS [1]: DCAF16 was not co-immunoprecipitated
Compound: CCC(=O)N1CCCc2cc(OCC(=O)NCCOCCOCCC(=O)Nc3cccc([C@@H](CCc4ccc(OC)c(OC)c4)OC(=O)[C@@H]4CCCCN4C(=O)C(=O)C(C)(C)CC)c3)ccc21 [C-KB02-SLF, (R)-3-(3,4-dimethoxyphenyl)-1-(3-(3-(2-(2-(2-((1-propionyl-1,2,3,4-tetrahydroquinolin-6-yl)oxy)acetamido)ethoxy)ethoxy)propanamido)phenyl)propyl (S)-1-(3,3-dimethyl-2-oxopentanoyl)piperidine-2-carboxylate]
nuclear FKBP12 (FKBP12_NLS) protein level ([2]; HEK293T): Reductions in FKBP12_NLS were not observed

effect of inhibitor on KB02-JQ1-mediated BRD4 degradation [3]: blocked
effect of inhibitor on KB02-SLF-mediated loss of FKBP12_NLS ([2]; 8 h): blocked
effect of inhibitor on degradation of FLAG-FKBP12_NLS in MDA-MB-231 cells [4]: blocked
Compound: NS(=O)(=O)OC[C@@H]1C[C@@H](n2ccc3c(N[C@H]4CCc5ccccc54)ncnc32)C[C@@H]1O [MLN4924, reference compound]

co-immunoprecipitation of HA-DCAF16 with FLAG-FKBP12_NLS [1]: co-immunoprecipitated with HA-DCAF16
Compound: CCC(C)(C)C(=O)C(=O)N1CCCC[C@H]1C(=O)O[C@H](CCc1ccc(OC)c(OC)c1)c1cccc(NC(=O)CCOCCOCCOCCOCCNC(=O)COc2ccc3c(c2)CCCN3C(=O)CCl)c1 [KB02-PEG4-SLF, (R)-1-(3-(1-((1-(2-chloroacetyl)-1,2,3,4-tetrahydroquinolin-6-yl)oxy)-2-oxo-6,9,12,15-tetraoxa-3-azaoctadecan-18-amido)phenyl)-3-(3,4-dimethoxyphenyl)propyl (S)-1-(3,3-dimethyl-2-oxopentanoyl)piperidine-2-carboxylate]
degradation of FLAG-FKBP12_NLS in MDA-MB-231 cells ([4]; 1 μM): degradation of stably expressed FLAG-FKBP12_NLS

co-immunoprecipitation of HA-DCAF16 with FLAG-FKBP12_NLS [1]: DCAF16 was not co-immunoprecipitated
nuclear FKBP12 (FKBP12_NLS) protein level ([2]; HEK293T): did not support FKBP12_NLS degradation
Compound: CCC(C)(C)C(=O)C(=O)N1CCCC[C@H]1C(=O)O[C@H](CCc1ccc(OC)c(OC)c1)c1cccc(NC(=O)CCOCCOCCNC(=O)CCNC(=O)c2cc(NC(=O)CCl)cc(C(F)(F)F)c2)c1 [KB03-SLF, (R)-1-(3-(1-(3-(2-chloroacetamido)-5-(trifluoromethyl)phenyl)-1,5-dioxo-9,12-dioxa-2,6-diazapentadecan-15-amido)phenyl)-3-(3,4-dimethoxyphenyl)propyl (S)-1-(3,3-dimethyl-2-oxopentanoyl)piperidine-2-carboxylate]

co-immunoprecipitation of HA-DCAF16 with FLAG-FKBP12_NLS [1]: DCAF16 was not co-immunoprecipitated
nuclear FKBP12 (FKBP12_NLS) protein level ([2]; HEK293T): did not support FKBP12_NLS degradation
Compound: C=CC(=O)N(c1ccc(Br)cc1)c1ccc(C(=O)NCCOCCOCCOCCC(=O)Nc2cccc([C@@H](CCc3ccc(OC)c(OC)c3)OC(=O)[C@@H]3CCCCN3C(=O)C(=O)C(C)(C)CC)c2)cc1 [KB05-SLF, (R)-1-(3-(1-(4-(N-(4-bromophenyl)acrylamido)phenyl)-1-oxo-5,8,11-trioxa-2-azatetradecan-14-amido)phenyl)-3-(3,4-dimethoxyphenyl)propyl (S)-1-(3,3-dimethyl-2-oxopentanoyl)piperidine-2-carboxylate]

FKBP12_NLS level in cells treated with the separate components of KB02-SLF ([2]; HEK293T, 1.5 μM, 8 h): FKBP12_NLS was not reduced
Compound: COc1ccc2c(c1)CCCN2C(=O)CCl [KB02, reference compound]
IC50 [5]: 23 ± 1.2 µM

cytosolic FKBP12 degradation [6]: degraded
nuclear FKBP12 degradation ([2]; HEK293T, lenalidomide-SLF positive control, 4 or 24 h): degraded
Compound: CCC(C)(C)C(=O)C(=O)N1CCCC[C@H]1C(=O)O[C@H](CCc1ccc(OC)c(OC)c1)c1cccc(NC(=O)CCCC(=O)NCCCCC(=O)Nc2cccc3c2CN(C2CCC(=O)NC2=O)C3=O)c1 (stereo partly drawn) [lenalidomide-SLF, (1R)-3-(3,4-dimethoxyphenyl)-1-(3-(5-((5-((2-(2,6-dioxopiperidin-3-yl)-1-oxoisoindolin-4-yl)amino)-5-oxopentyl)amino)-5-oxopentanamido)phenyl)propyl (2S)-1-(3,3-dimethyl-2-oxopentanoyl)piperidine-2-carboxylate, reference compound]

Compound: CC(C)C[C@@H](C=O)NC(=O)[C@H](CC(C)C)NC(=O)[C@H](CC(C)C)NC(=O)OCc1ccccc1 [MG132, reference compound] (Cbz-Leu-Leu-Leu-aldehyde)
effect of inhibitor on KB02-JQ1-mediated BRD4 degradation [3]: blocked
effect of inhibitor on KB02-SLF-mediated loss of FKBP12_NLS ([2]; 8 h): blocked
effect of inhibitor on degradation of FLAG-FKBP12_NLS in MDA-MB-231 cells [4]: blocked
